Columns and labels:
[1] = test system: interleukin 6; conditions: 50, 150, 300 mg s.c. every 3 months, dose-dependent; median follow-up 3.7 years; cited from earlier work
[2] = biological target: mouse IL-1β (Mus musculus, UniProt P10749); experiment: Cross-reactivity with mouse IL-1β; format: binding
[3] = test system: bone vasculature; experiment: Bone microvasculature after IL-1 blockade in mice (CD34 staining, ELISA for endothelin 1 and VEGF); format: in vivo, mouse; conditions: for average length of CD34+ blood vessels in trabecular bone: IL-1Ra in BALB/c nude mice, canakinumab in C57BL/6 mice; for average length of CD34+ blood vessels in trabecular bone / endothelin 1 concentration (ELISA) vs control: p<0.01; for VEGF concentration (ELISA) vs control / endothelin 1 concentration (ELISA) vs control: bone marrow; for VEGF concentration (ELISA) vs control: IL-1R antagonist p<0.01, canakinumab p<0.001
Procedure: FIG. 7. IL-1β in the bone microenvironment stimulates expansion of the bone metastatic niche. Effects of adding 40 pg/ml or 5 ng/ml recombinant IL-1β to MDA-MB-231 or T47D breast cancer cells is shown in (a) and effects on adding 20 pg/ml, 40 pg/ml or 5 ng/ml IL-1B on proliferation of HS5, bone marrow, or OB1, osteoblasts, are shown in b) and c) respectively. (d) IL-1 driven alterations to the bone vasculature was measured following CD34 staining in the trabecular region of the tibiae from 10-12-week old female IL-1R1 knockout mice. […] Data are shown as mean+/−SEM, *=P<0.01, **=P<0.001, ***=P<0.0001.
FIG. 8. Suppression of IL-1 signalling affects bone integrity and vasculature. […] Data shown are mean+/−SEM, *=P<0.01, **=P<0.001, ***=P<0.0001 compared with control.
(§1) Tumor cells, serum, and bone were subsequently resected for downstream analysis.

[4] = test system: high-sensitivity C-reactive protein (hsCRP); conditions: 50, 150, 300 mg s.c. every 3 months, dose-dependent; median follow-up 3.7 years; cited from earlier work
[5] = test system: MDA-MB-231Luc2-TdTomato cells; experiment: Spontaneous human breast cancer metastasis to human bone implants in NOD SCID mice; format: in vivo, mouse; conditions: for size of bone metastases vs control group: FIG. 4a; for mice with metastasis detected in human bone implants: n=10/group, IL-1Ra 1 mg/kg daily, canakinumab 10 mg/kg s.c. every 14 days from day 7, control 7 out of 10; for tumor cells counted in whole blood: placebo 108 tumor cells/ml
Procedure: FIG. 4. Pharmacological blockade of IL-1β inhibits spontaneous metastasis to human bone in vivo. Female NOD-SCID mice bearing two 0.5 cm^3 pieces of human femoral bone received intra-mammary injections of MDA-MB-231Luc2-TdTomato cells. […] All animals were culled 35 days following tumour cell injection. Effects on bone metastases (a) were assessed in vivo and immediately post-mortem by luciferase imaging and confirmed ex vivo on histological sections. Data are shown as numbers of photons per second emitted 2 minutes following sub-cutaneous injection of D-luciferin. Effects on numbers of tumour cells detected in the circulation are shown in (b). *=P<0.01, **=P<0.001, ***=P<0.0001.
To model human breast cancer metastasis to human bone implants two human bone discs were implanted subcutaneously into 10-week old female NOD SCID mice (n=10/group) under isofluorane anaesthetic. Mice received an injection of 0.003 mg vetergesic and Septrin was added to the drinking water for 1 week following bone implantation. Mice were left for 4 weeks before injecting 1×10^5 MDA-MB-231 Luc2-TdTomato, MCF7 Luc2 or T47D Luc2 cells in 20% Martigel/79% PBS/1% […] into the two hind mammary fat pads. Primary tumor growth and development of metastases was monitored weekly using an IVIS […] system (Caliper Life Sciences) following sub-cutaneous injection of 30 mg/ml D-luciferin (Invitrogen). On termination of experiments mammary tumors, circulating tumor cells, serum and bone metastases were resected. RNA was processed for downstream analysis by real time PCR, and cell lysates were taken for protein analysis and whole tissue for histology as previously described (Nutter et al., 2014; Ottewell et al., 2014a).
as §1
Whole blood was centrifuged at 10,000×g for 5 minutes and the serum removed for ELISA assays. The cell pellet was re-suspended in 5 ml of FSM lysis solution (Sigma-Aldrich, Pool, UK) to lyse red blood cells. Remaining cells were re-pelleted, washed 3× in PBS and re-suspended in a solution of PBS/10% FCS. Samples from 10 mice per group were pooled prior to isolation of TdTomato positive tumor cells using a MoFlow High performance cell sorter (Beckman Coulter, Cambridge UK) with the […] laser line from a Coherent I-90C tenable argon ion (Coherent, Santa Clara, Calif.). TdTomato fluorescence was detected by a 555LP dichroic long pass and a 580/30 nm band pass filter. Acquisition and analysis of cells was performed using Summit 4.3 software. Following sorting cells were immediately placed in RNA protect cell reagent (Ambion, Paisley, Renfrew, UK) and stored at −80° C. before RNA extraction. For counting numbers of circulating tumor cells, TdTomato fluorescence was detected using a 561 nm laser and an YL1-A filter (585/16 emission filter). Acquisition and analysis of cells was performed using Attune N×T software.

[6] = Gevokizumab clinical pharmacokinetics; format: in vivo, human; conditions: subcutaneous administration
[7] = test system: hsCRP; experiment: Gevokizumab clinical hsCRP reduction in type 2 diabetes patients; format: in vivo, human; conditions: top dose 0.3 mg/kg (~20 mg) Q4W
From the text: FIG. 12. Clinical data after gevokizumab treatment (panel a) and its extrapolation to higher doses (panels b, c, and d). Adjusted percent change from baseline in hsCRP in patients in a). The hsCRP exposure-response relationship is shown in b) for six different hsCRP base line concentrations.

[8] = test system: CML LSC; conditions: recombinant IL-1RA; cited from earlier work
[9] = test system: 4T1 tumors; experiment: 4T1 tumors treated with 01BSUR and docetaxel, tumor burden; format: in vivo, mouse; conditions: 4T1 s.c., treated days 8 and 15 post implant
Procedure: FIG. 16. Mice were implanted with 4T1 cells sc and treated with the indicated treatments on days 8 and 15 post tumor implant. There were 10 mice in each group.
(§2) Female Balb/c mice with 4T1 tumors implanted subcutaneously (s.c.) on the right flank were treated 8 and 15 days post-tumor implant initiating when the tumors reached about 100 mm^3 with the isotype antibody, docetaxel, 01BSUR, or a combination of docetaxel and 01BSUR. […] 5 days after the first dose, tumors were harvested and analyzed for changes to the infiltrating immune cell populations. This was done again at the end point of the study, 4 days after the second dose.

[10] = test system: LL2; experiment: Anti-IL-1β in combination with docetaxel in aggressive lung model (LL2); format: in vivo, mouse; conditions: LL2, FIG. 15A
[11] = test system: 4T1 tumors; experiment: TIL analysis of 4T1 tumors after docetaxel and 01BSUR; format: in vivo, mouse
Procedure: as §2

mouse IL-1β, sequence (P10749 118-269): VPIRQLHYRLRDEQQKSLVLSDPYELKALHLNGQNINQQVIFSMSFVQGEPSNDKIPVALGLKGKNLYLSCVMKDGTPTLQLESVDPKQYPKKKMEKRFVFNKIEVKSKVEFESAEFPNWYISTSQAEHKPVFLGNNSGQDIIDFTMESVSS

Question: Which results are given for “canakinumab: high-affinity, fully human monoclonal antibody of the IgG1/k to interleukin-1β (SEQ ID NO:17 and 18)”?
Answer: reductions in concentrations of interleukin 6 compared with placebo [1]: 25-43%; cross-reactivity with mouse IL-1β [2]: does not cross-react; average length of CD34+ blood vessels in trabecular bone [3]: reduced; VEGF concentration (ELISA) vs control [3]: reduced concentrations; endothelin 1 concentration (ELISA) vs control [3]: reduced concentrations; reductions in concentrations of hsCRP compared with placebo [4]: 26-41%; size of bone metastases vs control group [5]: smaller; mice with metastasis detected in human bone implants [5]: 1 out of 10; tumor cells counted in whole blood [5]: 3 tumor cells/ml

Question: Which Bioavailability [6] does the source give for “gevokizumab: high-affinity, humanized monoclonal antibody of the IgG2 isotype to interleukin-1β (SEQ ID NO:19 and 20)” here?
Answer: about 56%

Question: What about the “reduction of hsCRP” value [7] of the same compound?
Answer: up to 45%

Question: What does the source list for “IL-1Ra: recombinant IL-1 receptor antagonist (Anakinra)”?
Answer: average length of CD34+ blood vessels in trabecular bone [3]: reduced; VEGF concentration (ELISA) vs control [3]: reduced concentrations; endothelin 1 concentration (ELISA) vs control [3]: reduced concentrations; growth of CML LSC [8]: inhibited growth; size of bone metastases vs control group [5]: smaller; mice with metastasis detected in human bone implants [5]: 4 out of 10; tumor cells counted in whole blood [5]: 3 tumor cells/ml

Question: For CC(=O)O[C@@]12CO[C@@H]1C[C@H](O)[C@@]1(C)C(=O)[C@H](O)C3=C(C)[C@@H](OC(=O)[C@H](O)[C@@H](NC(=O)OC(C)(C)C)c4ccccc4)C[C@@](O)([C@@H](OC(=O)c4ccccc4)[C@H]21)C3(C)C [docetaxel], which “tumor growth vs vehicle/isotype control” value [9] is on record?
Answer: enhanced

Question: What about the “efficacy (tumor growth)” value [10] of the same compound?
Answer: modest efficacy

Question: What about the “CD4+ and CD8+ T cells expressing TIM-3 vs control” value ([11]; 4 days after a second dose) of the same compound?
Answer: no change

Question: What about the “granulocytic MDSC in 4T1 tumors” value ([11]; 5 days after a single dose) of the same compound?
Answer: decrease

Question: What about the “monocytes in 4T1 tumors vs vehicle/isotype” value ([11]; 5 days after a single dose) of the same compound?
Answer: decrease

Question: What about the “monocytic MDSC in 4T1 tumors” value ([11]; 5 days after a single dose) of the same compound?
Answer: decrease

Question: What about the “neutrophils in 4T1 tumors” value ([11]; 5 days after a single dose) of the same compound?
Answer: decrease

From patent US20220025036A1, “USE OF IL-1BETA BINDING ANTIBODIES” (NOVARTIS AG, priority 2018, published 2022)
